Results published in patent US11801310B2, “Composition for improving the solubility of poorly soluble substances, use thereof and complex formulation containing thereof” (Industrial Technology Research Institute, priority 2017, dated 2023).
Values after ≈ are worked out from the molar mass of the structure shown.

Columns and labels:
[1] = at 25° C.; cited from earlier work
[2] = Solubility test for loteprednol etabonate (LE), Example 1-1: different amino acids, oligopeptides or monosaccharide as stabilizer; assay type: physicochemical; details: aqueous with cosolvent or surfactant or cyclodextrin, thermodynamic from solid; LE feeding 4000 μg; re-dissolved in 2 mL deionized water, pH 5.5, room temperature, 0.22 μm filtered, HPLC
Protocol: The samples were formulated and analyzed according to the formulas shown in the following Table 1 and the methods described below at room temperature. […] After that, the mixture was dried in a vacuum environment to performing drying to remove the solvent therein and obtain a dried product. […] Next, the test sample was filtered with a 0.22 μm pore size filter to remove undissolved precipitate. Finally, the content of loteprednol etabonate (LE) in the test sample was analyzed by high performance liquid chromatography (HPLC).

[3] = Solubility test for LE, Example 1-2: histidine as stabilizer; assay type: physicochemical; details: secondary water, aqueous with cosolvent or surfactant or cyclodextrin; final volume 1 mL, pH 5.5, room temperature, 0.22 μm filtered, HPLC
From the text: The samples were formulated and analyzed according to the formulas shown in the following Table 3 and the methods described below at room temperature.
Hydroxypropyl-γ-cyclodextrin, a water-soluble polymer (hydroxypropyl methyl cellulose (HPMC) (molecular weight: 16676)), and histidine (His) as a stabilizer of the formulation were co-dissolved in secondary water to form a solution.
[…] After that, […], and the pH was adjusted to 5.5 with a 0.1 M HCl aqueous solution, and the final solution volume was fixed to 1 mL (the insufficient portion was replenished with secondary water) to form a test sample. Thereafter, the test sample was then filtered with a 0.22 μm pore size filter to remove undissolved precipitate. Finally, the content of loteprednol etabonate (LE) in the test sample was analyzed by high performance liquid chromatography (HPLC).

[4] = Solubility test for LE, Example 1-3: glutathione as stabilizer; assay type: physicochemical; details: secondary water, aqueous with cosolvent or surfactant or cyclodextrin; final volume 1 mL, pH 5.5, room temperature, 0.22 μm filtered, HPLC
Protocol: The samples were formulated and analyzed according to the formula shown in the following Table 5 and the methods described below at room temperature.
[…] After that, the mixture was treated by a rotary evaporator to completely remove methanol, and the pH was adjusted to 5.5 with a 1 M NaOH aqueous solution, and the final solution volume was fixed to 1 mL (the insufficient portion was replenished with secondary water) to form a test sample. Thereafter, the test sample was then filtered with a 0.22 μm pore size filter to remove undissolved precipitate. Finally, the content of loteprednol etabonate (LE) in the test sample was analyzed by high performance liquid chromatography (HPLC).

Structure (SMILES): N[C@@H](CCC(=O)N[C@@H](CS)C(=O)NCC(=O)O)C(=O)O [GSH, glutathione]
- Water solubility [1]: 0.95 mol/L

Structure (SMILES): CCOC(=O)O[C@]1(C(=O)OCCl)CC[C@H]2[C@@H]3CCC4=CC(=O)C=C[C@]4(C)[C@H]3[C@@H](O)C[C@@]21C [LE, loteprednol etabonate]
- solubility [2]: 1.5 µg/mL (≈ 3.21 µM)
- solubility [3]: 1.5 µg/mL (≈ 3.21 µM)
- solubility [4]: 1.5 µg/mL (≈ 3.21 µM)

Structure (SMILES): OC[C@@H](O)[C@@H](O)[C@H](O)[C@H](O)CO [Mannitol, mannitol]
- Water solubility [1]: 1.19 mol/L
